Read-outs that look alike come from different tables or passages of the source. One block for each compound: values may come before it.
Assays:
[1] = cited from earlier work; for decrease of plasma concentration of quetiapine: administration of lamotrigine
[2] = for plasma level of quetiapine / hmax: male rats; for hmax: mean±SD
CYP3A4 = conditions: cited from earlier work
[3] = with probenecid, by inhibition of UGT glucuronidation enzymes; cited from earlier work
[4] = quetiapine 50 mg/kg oral after probenecid 50 mg/kg oral
[5] = quetiapine alone, 50 mg/kg single oral dose

- plasma level of quetiapine [2, 4]: 323 ± 128 µg/L
- hmax [2, 4]: 0.63 ± 0.3 h
- plasma level of quetiapine [2, 5]: 155 ± 37 µg/L
- hmax [2, 5]: 5 ± 2 h
- difference in half-life of quetiapine between groups ([2]; quetiapine plus probenecid vs quetiapine alone, rats): no significant difference
Structure (SMILES): OCCOCCN1CCN(C2=Nc3ccccc3Sc3ccccc32)CC1 [Quetiapine]
- decrease of plasma concentration of quetiapine ([1]; study with 22 patients): 58%
- decrease of plasma concentration of quetiapine ([1]; study with 144 patients): 17%
- increase of plasma level of quetiapine ([1]; co-administered valproic acid, elderly patients): 77%
- increase of Cmax of quetiapine ([1]; coadministered with sodium divalproex, adult patients, nonsignificant): 17%
- change in AUC τ of quetiapine ([1]; coadministered with sodium divalproex, adult patients): no changes
- effect of coadministration on quetiapine ([1]; coadministered with valproic acid, adult patients, ref Santoro et al. 20): nonsignificant results

Structure (SMILES): CCCC(CCC)C(=O)O [Valproic acid]
- inhibition of CYP3A4 (CYP3A4): weak inhibitor

Structure (SMILES): Cc1cc2c(s1)Nc1ccccc1N=C2N1CCN(C)CC1 [olanzapine]
- level of olanzapine [3]: increases

From publication PMC7485652 (Saudi Journal of Medicine & Medical Sciences, 2020)
